Data published in patent US20230113037A1 (Bayer Aktiengesellschaft, priority 2019, published 2023).
Read-outs that look alike come from different tables or passages of the source.

Key:
AHR [1] = biological target: T1, AHR (Mus musculus, UniProt P30561); assay: In vitro assay 3: antagonism in mouse cell line (AHR transactivation, firefly luciferase reporter, kynurenic acid prestimulated); type: cell-based
T1 sequence (P30561 1-848 P471L/N533S/M589L): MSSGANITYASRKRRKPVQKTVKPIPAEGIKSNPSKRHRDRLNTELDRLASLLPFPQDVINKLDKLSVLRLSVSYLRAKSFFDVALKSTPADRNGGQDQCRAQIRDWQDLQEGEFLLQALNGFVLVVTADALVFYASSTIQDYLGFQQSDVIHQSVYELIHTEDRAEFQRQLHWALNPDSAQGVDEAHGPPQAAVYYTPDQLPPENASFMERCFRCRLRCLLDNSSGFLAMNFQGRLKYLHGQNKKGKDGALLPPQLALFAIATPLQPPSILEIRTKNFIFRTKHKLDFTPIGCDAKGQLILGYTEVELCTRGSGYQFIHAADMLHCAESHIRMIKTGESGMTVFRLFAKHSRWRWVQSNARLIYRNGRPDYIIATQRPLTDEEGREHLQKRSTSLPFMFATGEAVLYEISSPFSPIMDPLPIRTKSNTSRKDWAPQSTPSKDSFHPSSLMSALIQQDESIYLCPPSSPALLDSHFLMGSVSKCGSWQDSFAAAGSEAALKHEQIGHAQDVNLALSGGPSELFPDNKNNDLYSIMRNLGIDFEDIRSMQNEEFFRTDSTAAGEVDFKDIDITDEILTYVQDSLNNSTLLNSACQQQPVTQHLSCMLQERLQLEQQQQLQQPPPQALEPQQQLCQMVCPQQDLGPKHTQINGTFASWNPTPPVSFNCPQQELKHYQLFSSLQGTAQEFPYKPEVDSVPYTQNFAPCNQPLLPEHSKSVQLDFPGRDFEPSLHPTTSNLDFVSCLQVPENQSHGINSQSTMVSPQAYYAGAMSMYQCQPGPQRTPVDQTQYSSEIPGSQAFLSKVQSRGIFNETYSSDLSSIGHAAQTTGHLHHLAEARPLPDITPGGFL
How it was run: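 Cells were first stimulated with kynurenic acid, then exposed to test compound, after which firefly luciferase from a DRE-containing AHR reporter was read out. Signal was scaled between positive and negative controls. Cells not given kynurenic acid provided the inhibition reference.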

AHR [2] = biological target: T2, AHR (Homo sapiens, UniProt P35869); assay: In vitro assay 1: antagonism in human cell line (AHR transactivation, firefly luciferase reporter, kynurenic acid prestimulated); type: cell-based; details: AHR Antagonism Human IC50 [M]
T2 construct: U87 MG glioblastoma cells (ATCC #HTB-14) endogenously expressing AHR; endogenous in cells; host or cells: U87 MG glioblastoma cells (ATCC #HTB-14)
T2 sequence (P35869 11-848): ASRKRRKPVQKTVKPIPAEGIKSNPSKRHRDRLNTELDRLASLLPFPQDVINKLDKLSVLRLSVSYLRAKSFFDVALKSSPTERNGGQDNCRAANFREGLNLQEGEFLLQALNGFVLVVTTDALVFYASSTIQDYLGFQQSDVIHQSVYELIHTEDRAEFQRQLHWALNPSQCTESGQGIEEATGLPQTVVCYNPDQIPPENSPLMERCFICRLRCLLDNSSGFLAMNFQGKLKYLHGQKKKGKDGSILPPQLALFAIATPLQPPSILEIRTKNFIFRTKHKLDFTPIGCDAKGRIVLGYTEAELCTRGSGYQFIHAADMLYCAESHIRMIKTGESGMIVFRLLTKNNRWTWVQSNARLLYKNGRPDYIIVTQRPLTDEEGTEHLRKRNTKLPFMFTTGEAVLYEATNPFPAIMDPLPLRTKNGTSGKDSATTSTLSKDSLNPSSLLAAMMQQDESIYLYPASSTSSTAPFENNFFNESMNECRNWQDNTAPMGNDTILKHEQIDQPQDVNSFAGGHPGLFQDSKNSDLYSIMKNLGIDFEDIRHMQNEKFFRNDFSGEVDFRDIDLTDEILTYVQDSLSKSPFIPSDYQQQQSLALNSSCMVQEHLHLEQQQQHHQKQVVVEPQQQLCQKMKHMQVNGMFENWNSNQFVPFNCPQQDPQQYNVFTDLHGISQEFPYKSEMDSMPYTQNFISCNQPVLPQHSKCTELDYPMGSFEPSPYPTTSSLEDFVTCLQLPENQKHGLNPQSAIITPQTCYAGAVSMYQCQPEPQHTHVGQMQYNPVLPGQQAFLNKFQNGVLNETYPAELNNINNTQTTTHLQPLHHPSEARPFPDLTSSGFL
Description: Examples were tested in selected biological assays one or more times. When tested more than once, data are reported as either average values or as median values, wherein • the average value, also referred to as the arithmetic mean value, represents the sum of the values obtained divided by the number of times tested, and • the median value represents the middle number of the group of values when ranked in ascending or descending order. If the number of values in the data set is odd, the median is the middle value. If the number of values in the data set is even, the median is the arithmetic mean of the two middle values.
Transactivation assays were carried out in U87 MG glioblastoma cells (ATCC #HTB-14) endogenously expressing AHR. In addition the cells were stably transfected with an AHR inducible firefly luciferase reporter gene construct that carried AHR-binding sites (DRE) in its promoter and a renilla reporter gene construct with constitutively active promoter. Kynurenic acid is an endogenous AHR activating ligand and was used to prestimulate test cells prior to testing the antagonistic properties of compounds.
As positive inhibition control cells supplemented with 150 μM kynurenic acid were incubated in presence of 5 μM Staurosporin. Normalization was done by positive and negative controls.
Firefly luciferase and Renilla activity was determined by the DualGlo Luciferase Assay System (Promega, #2920). Renilla activity was used to assess toxic effects of compounds.

[3] = mouse Hepa 1c1c7 cells, 200 μM kynurenic acid, 20 hours, read-out: AHR Antagonism Mouse IC50
[4] = Hepa 1c1c7 cells, 200 μM kynurenic acid, 20 hours, firefly luciferase reporter, read-out: AHR Antagonism Mouse IC50

| SMILES | IC50 (AHR [1]; [3]) [nM] | IC50 (AHR [2]) [M] | IC50 (AHR [1]; read-out: AHR Antagonism Mouse IC50, mouse Hepa 1c1c7 cells, 200 μM kynurenic acid, 20 hours) [nM] | IC50 (AHR [1]; [4]) [nM] | IC50 (AHR [2]; firefly luciferase reporter) [M] |
| --- | --- | --- | --- | --- | --- |
| O=C1NCCCC[C@H]1Nc1nc2c(Br)cccc2c2nc(-c3cn[nH]c3)nn12 [Example 579, (3R)-3-{[7-bromo-2-(1H-pyrazol-4-yl)[1,2,4]triazolo[1,5-c]quinazolin-5-yl]amino}azepan-2-one] | 68.1 | 1.13e-08 |  |  |  |
| O=C1NCCNC[C@H]1Nc1nc2c(C(F)(F)F)cccc2c2nc(-c3ccc(F)cc3)nn12 [Example 423, (6R)-6-{[2-(4-fluorophenyl)-7-(trifluoromethyl)[1,2,4]triazolo[1,5-c]quinazolin-5-yl]amino}-1,4-diazepan-5-one] | 0.349 | 2.81e-10 |  |  |  |
| O=C1NCCCC[C@H]1Nc1nc2ccccc2c2nc(-c3cncc(F)c3)nn12 [Example 479, (3R)-3-{[2-(5-fluoropyridin-3-yl)[1,2,4]triazolo[1,5-c]quinazolin-5-yl]amino}azepan-2-one] |  | 3.53e-08 | 33.2 |  |  |
| COc1ccc(-c2nc3c4c(N5CCOCC5)cccc4nc(N[C@@H]4CCCCNC4=O)n3n2)cc1 [Example 655, (3R)-3-{[2-(4-methoxyphenyl)-10-(morpholin-4-yl)[1,2,4]triazolo[1,5-c]quinazolin-5-yl]amino}azepan-2-one] | 256 | 1.39e-07 |  |  |  |
| COc1cccc(-c2nc3c4cc(F)ccc4nc(NC4CCNC4=O)n3n2)c1 (single isomer, unassigned) [Example 187, 3-{[9-fluoro-2-(3-methoxyphenyl)[1,2,4]triazolo[1,5-c]quinazolin-5-yl]amino}pyrrolidin-2-one] | 321 | 6.04e-08 |  |  |  |
| CC[C@@H](Nc1nc2ccccc2c2nc(-c3cc(Cl)ccc3OC(F)(F)F)nn12)C(N)=O [Example 504, (2R)-2-({2-[5-chloro-2-(trifluoromethoxy)phenyl][1,2,4]triazolo[1,5-c]quinazolin-5-yl}amino)butanamide] | 37.9 | 3.65e-07 |  |  |  |
| COCCNC(=O)[C@H](Nc1nc2c(Br)cccc2c2nc(-c3cnn(C)c3)nn12)C(C)C [Example 929, N^2-[7-bromo-2-(1-methyl-1H-pyrazol-4-yl)[1,2,4]triazolo[1,5-c]quinazolin-5-yl]-N-(2-methoxyethyl)-D-valinamide] |  |  |  | 10.9 | 3.93e-08 |
| O=C1NCCCC[C@H]1Nc1nc2c(Cl)cccc2c2nc(-c3cnn(C4CC4)c3)nn12 [Example 816, (3R)-3-{[7-chloro-2-(1-cyclopropyl-1H-pyrazol-4-yl)[1,2,4]triazolo[1,5-c]quinazolin-5-yl]amino}azepan-2-one] |  |  |  | 0.99 | 1.05e-09 |
| O=C1NCCCC[C@H]1Nc1nc2ccccc2c2nc(-c3ccc(O)c(F)c3)nn12 [Example 629, (3R)-3-{[2-(3-fluoro-4-hydroxyphenyl)[1,2,4]triazolo[1,5-c]quinazolin-5-yl]amino}azepan-2-one] | 190 | 4.88e-08 |  |  |  |
| COc1cccc(-c2nc3c4ccccc4nc(N[C@H](C)C(=O)NCCCO)n3n2)c1 [Example 112, N-(3-hydroxypropyl)-N^2-[2-(3-methoxyphenyl)[1,2,4]triazolo[1,5-c]quinazolin-5-yl]-D-alaninamide] | 6 | 3.79e-08 |  |  |  |
| COc1ccc(-c2nc3c4ccccc4nc(N[C@@H]4CCCCNC4=O)n3n2)c(F)c1 [Example 631, (3R)-3-{[2-(2-fluoro-4-methoxyphenyl)[1,2,4]triazolo[1,5-c]quinazolin-5-yl]amino}azepan-2-one] | 3.53 | 1e-09 |  |  |  |
| COc1ccc(-c2nc3c4cc(OC)ccc4nc(N[C@@H]4CNCCNC4=O)n3n2)cc1 [Example 279, (6R)-6-{[9-methoxy-2-(4-methoxyphenyl)[1,2,4]triazolo[1,5-c]quinazolin-5-yl]amino}-1,4-diazepan-5-one] | 180 | 3.08e-07 |  |  |  |
| O=C1NCCCCCC1Nc1nc2ccccc2c2nc(-c3ccccc3OC(F)(F)F)nn12 (stereo not shown) [Example 461, 3-({2-[2-(trifluoromethoxy)phenyl][1,2,4]triazolo[1,5-c]quinazolin-5-yl}amino)azocan-2-one] | 1.95 | 6.18e-09 |  |  |  |
| CN(C)c1ccc(-c2nc3c4ccccc4nc(N[C@@H]4CCCCNC4=O)n3n2)cc1 [Example 128, (3R)-3-({2-[4-(dimethylamino)phenyl][1,2,4]triazolo[1,5-c]quinazolin-5-yl}amino)azepan-2-one] | 0.316 | 1.5e-09 |  |  |  |
| COc1ccc(-c2nc3c4cccc(CO)c4nc(N[C@@H]4CCCCNC4=O)n3n2)cc1 [Example 860, (3R)-3-{[7-(hydroxymethyl)-2-(4-methoxyphenyl)[1,2,4]triazolo[1,5-c]quinazolin-5-yl]amino}azepan-2-one] |  |  |  | 16 | 9.26e-10 |
| CC[C@@H](Nc1nc2c(C(F)(F)F)cccc2c2nc(-c3ccnn3C)nn12)C(N)=O [Example 806, (2R)-2-{[2-(1-methyl-1H-pyrazol-5-yl)-7-(trifluoromethyl)[1,2,4]triazolo[1,5-c]quinazolin-5-yl]amino}butanamide] |  |  |  | 1.14 | 3.49e-09 |
| O=C1NCCCC[C@@H]1Nc1nc2ccccc2c2nc(-c3ccc(Br)cc3OC(F)(F)F)nn12 [Example 682, (3S)-3-({2-[4-bromo-2-(trifluoromethoxy)phenyl][1,2,4]triazolo[1,5-c]quinazolin-5-yl}amino)azepan-2-one] | 6.82 | 7.43e-08 |  |  |  |
| CCOC(=O)[C@@H](C)Nc1nc2c(Br)cccc2c2nc(-c3ccc(OC)cc3)nn12 [Example 865, ethyl N-[7-bromo-2-(4-methoxyphenyl)[1,2,4]triazolo[1,5-c]quinazolin-5-yl]-D-alaninate] |  |  |  | 11.8 | 4.02e-09 |
| COc1ccc(-c2nc3c4ccccc4nc(N[C@@H]4CCCCNC4=O)n3n2)c(C(F)(F)F)c1 [Example 512, (3R)-3-({2-[4-methoxy-2-(trifluoromethyl)phenyl][1,2,4]triazolo[1,5-c]quinazolin-5-yl}amino)azepan-2-one] | 2.48 | 1.04e-08 |  |  |  |
| O=C1NCCCC[C@@H]1Nc1nc2ccccc2c2nc(-c3ccc(Cl)cc3OC(F)(F)F)nn12 [Example 518, (3S)-3-({2-[4-chloro-2-(trifluoromethoxy)phenyl][1,2,4]triazolo[1,5-c]quinazolin-5-yl}amino)azepan-2-one] | 7.94 | 4.5e-08 |  |  |  |
